The results in this text go back to patent US20090099029A1, “Methods and substrates for conducting assays” (Invitrogen Corporation, priority 2005, published 2009).

Common to all, as to test: Further analysis of a plurality of inhibitors and a plurality of kinases (Table 5 inhibition results)
Holding throughout (type): biochemical
Holding throughout (set-up): scale not given here

Experiment [1] addresses kinases of Table 5 (Homo sapiens, UniProt P11362). Particulars: inhibitor 100 uM; for Inhibition level: kinase FGFR1; for Inhibition Results (Level): kinase FGFR1 (Part II, plate D12, Domain 1). The source says: (§1) The wash solution is then discarded.
The target of experiment [2] is kinases of Table 5 (Homo sapiens, UniProt Q13627). Particulars: kinase DYRK1A (Part I, plate G6, Domain 1).
Excerpt: as §1

Experiment [3] has as its target kinases of Table 5 (Homo sapiens, UniProt P11309).
Excerpt: as §1

Experiment [4] concerns the target kinases of Table 5 (Homo sapiens, UniProt P06241).
Excerpt: as §1

For experiment [5], the target named is T1, kinases of Table 5 (Homo sapiens, UniProt P54753).
T1 sequence (P54753 34-998): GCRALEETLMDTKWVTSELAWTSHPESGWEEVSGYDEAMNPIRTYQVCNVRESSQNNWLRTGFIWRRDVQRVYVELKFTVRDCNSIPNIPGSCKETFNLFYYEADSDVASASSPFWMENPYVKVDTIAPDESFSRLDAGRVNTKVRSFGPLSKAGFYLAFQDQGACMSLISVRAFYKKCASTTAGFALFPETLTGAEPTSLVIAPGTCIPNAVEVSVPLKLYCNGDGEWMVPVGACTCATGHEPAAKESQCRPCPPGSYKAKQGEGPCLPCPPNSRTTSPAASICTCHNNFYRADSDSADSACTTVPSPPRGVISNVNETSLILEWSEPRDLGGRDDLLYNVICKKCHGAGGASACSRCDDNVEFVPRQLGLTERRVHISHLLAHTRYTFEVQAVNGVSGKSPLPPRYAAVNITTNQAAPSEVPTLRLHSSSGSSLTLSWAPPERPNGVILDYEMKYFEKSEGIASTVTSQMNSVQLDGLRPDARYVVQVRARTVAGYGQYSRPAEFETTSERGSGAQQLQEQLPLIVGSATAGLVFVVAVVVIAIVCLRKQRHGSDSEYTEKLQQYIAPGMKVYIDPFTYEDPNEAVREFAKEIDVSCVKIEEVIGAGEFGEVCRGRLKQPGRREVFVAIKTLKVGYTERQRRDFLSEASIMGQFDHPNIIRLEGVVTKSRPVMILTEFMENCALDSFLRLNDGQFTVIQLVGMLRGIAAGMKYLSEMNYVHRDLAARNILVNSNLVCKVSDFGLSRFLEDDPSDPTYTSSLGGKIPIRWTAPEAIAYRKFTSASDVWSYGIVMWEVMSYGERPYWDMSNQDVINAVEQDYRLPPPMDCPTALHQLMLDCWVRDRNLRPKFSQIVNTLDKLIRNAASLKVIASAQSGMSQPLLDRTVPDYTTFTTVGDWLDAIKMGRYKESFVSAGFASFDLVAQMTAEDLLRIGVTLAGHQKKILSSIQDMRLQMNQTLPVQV
The conditions noted are these: for Inhibition level: kinase EPHB3; for Inhibition Results (Level): kinase EPHB3 (Part II, plate B5, Domain 1).
Excerpt: as §1

Experiment [6] deals with kinases of Table 5 (Homo sapiens, UniProt P07948).
Excerpt: as §1

The target of experiment [7] is T2, kinases of Table 5 (Homo sapiens, UniProt P45985).
T2 sequence (P45985 1-399): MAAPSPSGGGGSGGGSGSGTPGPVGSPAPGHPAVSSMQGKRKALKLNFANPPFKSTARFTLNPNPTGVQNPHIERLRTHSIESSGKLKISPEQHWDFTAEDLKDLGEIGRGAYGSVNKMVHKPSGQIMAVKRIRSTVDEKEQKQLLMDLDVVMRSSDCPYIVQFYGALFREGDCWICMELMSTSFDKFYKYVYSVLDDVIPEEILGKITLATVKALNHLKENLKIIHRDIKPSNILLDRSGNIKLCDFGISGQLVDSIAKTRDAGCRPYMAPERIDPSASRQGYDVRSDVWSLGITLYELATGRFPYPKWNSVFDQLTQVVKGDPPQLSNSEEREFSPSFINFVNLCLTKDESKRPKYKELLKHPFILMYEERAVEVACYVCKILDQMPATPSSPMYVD
Excerpt: as §1

Experiment [8] concerns the target kinases of Table 5 (Homo sapiens, UniProt Q13557).
Excerpt: as §1

The target of experiment [9] is T3, kinases of Table 5 (Homo sapiens, UniProt Q9Y616).
T3 sequence (Q9Y616 1-596): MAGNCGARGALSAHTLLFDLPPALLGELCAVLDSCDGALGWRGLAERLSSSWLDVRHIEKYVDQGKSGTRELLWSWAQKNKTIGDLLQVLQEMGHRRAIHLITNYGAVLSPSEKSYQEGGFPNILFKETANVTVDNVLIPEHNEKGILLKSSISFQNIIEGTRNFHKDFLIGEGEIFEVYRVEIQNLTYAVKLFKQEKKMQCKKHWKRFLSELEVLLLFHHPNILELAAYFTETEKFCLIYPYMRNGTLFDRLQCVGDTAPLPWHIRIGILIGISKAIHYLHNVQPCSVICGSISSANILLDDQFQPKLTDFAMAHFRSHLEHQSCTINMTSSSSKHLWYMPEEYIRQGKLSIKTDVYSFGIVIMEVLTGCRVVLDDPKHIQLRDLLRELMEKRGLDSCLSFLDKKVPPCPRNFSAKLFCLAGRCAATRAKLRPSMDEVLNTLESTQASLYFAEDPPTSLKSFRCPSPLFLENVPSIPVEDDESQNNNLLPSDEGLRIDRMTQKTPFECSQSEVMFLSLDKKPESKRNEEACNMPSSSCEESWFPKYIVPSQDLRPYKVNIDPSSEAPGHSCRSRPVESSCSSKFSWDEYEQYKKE
The conditions noted are these: kinase IRAK3 (Part I, plate C9, Domain 1); inhibitor 100 uM.
Excerpt: as §1

Experiment [10] addresses kinases of Table 5 (Homo sapiens, UniProt Q00536). The conditions noted are these: kinase PCTK1 (Part I, plate A3, Domain 0); inhibitor 100 uM.
Excerpt: as §1

Experiment [11] has as its target kinases of Table 5 (Homo sapiens, UniProt P06239). The conditions noted are these: kinase LCK (Part I, plate A6, Domain 0).
Excerpt: as §1

The mark [12] stands for this setting: kinase PIM1 (Part I, plate C2, Domain 1), inhibitor 100 uM.
The mark [13] stands for this setting: kinase FYN (Part I, plate A4, Domain 0), inhibitor 100 uM.
Where [14] appears, read: kinase LYN (Part I, plate A5, Domain 0), inhibitor 100 uM.
[15] abbreviates: kinase MAP2K4 (Part I, plate E6, Domain 1), inhibitor 100 uM.
[16] abbreviates: kinase CAMK2D, inhibitor 100 uM.

Read-outs that look alike come from different tables or passages of the source.

Chain of kinases of Table 5 (Homo sapiens, UniProt P11362) (P11362 22-822): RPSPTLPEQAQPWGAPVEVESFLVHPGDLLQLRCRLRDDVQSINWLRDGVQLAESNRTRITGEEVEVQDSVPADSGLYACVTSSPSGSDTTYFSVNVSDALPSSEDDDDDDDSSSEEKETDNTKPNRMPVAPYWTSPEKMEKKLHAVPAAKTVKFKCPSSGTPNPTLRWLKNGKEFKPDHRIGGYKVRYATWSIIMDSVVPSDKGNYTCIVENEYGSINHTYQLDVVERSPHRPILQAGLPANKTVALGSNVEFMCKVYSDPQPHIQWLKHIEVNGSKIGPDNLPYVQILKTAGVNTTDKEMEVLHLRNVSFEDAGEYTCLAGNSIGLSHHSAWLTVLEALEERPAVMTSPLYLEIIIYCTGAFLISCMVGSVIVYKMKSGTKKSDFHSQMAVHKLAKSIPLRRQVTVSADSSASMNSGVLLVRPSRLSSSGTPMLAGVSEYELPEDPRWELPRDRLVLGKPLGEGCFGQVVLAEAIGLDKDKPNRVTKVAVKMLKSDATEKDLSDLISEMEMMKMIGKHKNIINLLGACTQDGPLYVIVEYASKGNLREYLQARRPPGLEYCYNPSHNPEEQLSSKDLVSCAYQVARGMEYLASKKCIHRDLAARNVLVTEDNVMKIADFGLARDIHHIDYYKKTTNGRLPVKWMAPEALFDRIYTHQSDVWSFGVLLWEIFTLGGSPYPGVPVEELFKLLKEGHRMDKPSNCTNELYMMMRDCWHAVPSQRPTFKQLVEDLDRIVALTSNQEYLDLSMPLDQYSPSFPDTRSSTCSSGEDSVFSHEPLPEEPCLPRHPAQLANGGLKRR
Chain of kinases of Table 5 (Homo sapiens, UniProt Q13557) (Q13557 whole entry): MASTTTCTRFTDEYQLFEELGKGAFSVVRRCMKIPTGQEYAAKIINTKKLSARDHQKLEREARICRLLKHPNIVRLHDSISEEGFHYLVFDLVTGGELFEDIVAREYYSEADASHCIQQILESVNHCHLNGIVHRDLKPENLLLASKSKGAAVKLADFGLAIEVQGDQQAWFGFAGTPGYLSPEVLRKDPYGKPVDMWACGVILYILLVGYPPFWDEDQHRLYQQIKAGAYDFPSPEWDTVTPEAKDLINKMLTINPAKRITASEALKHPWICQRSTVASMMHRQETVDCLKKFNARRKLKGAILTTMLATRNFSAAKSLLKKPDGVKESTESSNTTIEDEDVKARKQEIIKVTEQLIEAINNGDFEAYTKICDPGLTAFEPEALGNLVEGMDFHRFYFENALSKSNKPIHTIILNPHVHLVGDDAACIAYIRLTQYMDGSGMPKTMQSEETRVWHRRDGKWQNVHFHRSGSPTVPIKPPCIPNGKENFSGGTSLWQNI
Chain of kinases of Table 5 (Homo sapiens, UniProt Q00536) (Q00536 whole entry): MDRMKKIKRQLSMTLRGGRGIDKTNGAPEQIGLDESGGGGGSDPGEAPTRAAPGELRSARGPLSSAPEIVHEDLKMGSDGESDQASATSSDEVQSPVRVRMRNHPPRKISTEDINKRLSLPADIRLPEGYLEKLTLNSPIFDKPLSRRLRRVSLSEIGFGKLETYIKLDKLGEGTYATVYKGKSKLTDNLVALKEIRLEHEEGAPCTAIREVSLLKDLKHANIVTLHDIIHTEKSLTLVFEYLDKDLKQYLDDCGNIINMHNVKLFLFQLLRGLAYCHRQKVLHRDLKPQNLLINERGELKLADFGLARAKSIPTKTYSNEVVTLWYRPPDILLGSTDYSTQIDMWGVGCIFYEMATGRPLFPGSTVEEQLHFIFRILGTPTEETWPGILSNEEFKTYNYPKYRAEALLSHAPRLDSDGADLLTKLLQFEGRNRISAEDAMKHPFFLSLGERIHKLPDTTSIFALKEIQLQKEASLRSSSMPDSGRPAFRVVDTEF
Chain of kinases of Table 5 (Homo sapiens, UniProt P06239) (P06239 whole entry): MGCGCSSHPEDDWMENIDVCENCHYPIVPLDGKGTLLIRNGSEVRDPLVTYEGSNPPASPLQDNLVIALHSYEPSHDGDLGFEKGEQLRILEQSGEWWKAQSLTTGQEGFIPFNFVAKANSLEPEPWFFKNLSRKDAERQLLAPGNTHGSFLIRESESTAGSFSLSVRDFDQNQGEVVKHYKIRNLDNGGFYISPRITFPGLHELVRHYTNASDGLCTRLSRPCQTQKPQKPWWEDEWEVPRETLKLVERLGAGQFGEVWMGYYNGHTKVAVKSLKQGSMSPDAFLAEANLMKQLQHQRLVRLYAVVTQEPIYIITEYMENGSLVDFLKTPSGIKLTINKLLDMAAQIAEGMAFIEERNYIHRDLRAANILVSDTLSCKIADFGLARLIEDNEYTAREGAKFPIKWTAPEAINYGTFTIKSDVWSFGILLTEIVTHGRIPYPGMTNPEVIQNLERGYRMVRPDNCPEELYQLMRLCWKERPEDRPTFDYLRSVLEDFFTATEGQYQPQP
Chain of kinases of Table 5 (Homo sapiens, UniProt P06241) (P06241 whole entry): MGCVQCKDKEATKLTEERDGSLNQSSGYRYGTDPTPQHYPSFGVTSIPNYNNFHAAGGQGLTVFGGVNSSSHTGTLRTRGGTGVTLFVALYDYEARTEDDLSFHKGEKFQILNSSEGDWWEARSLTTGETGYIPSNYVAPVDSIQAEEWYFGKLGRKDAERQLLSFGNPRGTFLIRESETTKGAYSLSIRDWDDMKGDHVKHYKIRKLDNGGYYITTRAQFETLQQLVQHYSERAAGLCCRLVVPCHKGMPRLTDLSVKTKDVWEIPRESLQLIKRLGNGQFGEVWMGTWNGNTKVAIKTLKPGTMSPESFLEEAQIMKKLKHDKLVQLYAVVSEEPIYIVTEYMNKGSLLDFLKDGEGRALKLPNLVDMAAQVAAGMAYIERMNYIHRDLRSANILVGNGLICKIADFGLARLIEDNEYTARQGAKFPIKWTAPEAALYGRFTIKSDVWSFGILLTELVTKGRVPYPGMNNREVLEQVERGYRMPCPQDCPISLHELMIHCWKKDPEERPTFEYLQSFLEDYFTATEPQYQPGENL
Chain of kinases of Table 5 (Homo sapiens, UniProt P07948) (P07948 whole entry): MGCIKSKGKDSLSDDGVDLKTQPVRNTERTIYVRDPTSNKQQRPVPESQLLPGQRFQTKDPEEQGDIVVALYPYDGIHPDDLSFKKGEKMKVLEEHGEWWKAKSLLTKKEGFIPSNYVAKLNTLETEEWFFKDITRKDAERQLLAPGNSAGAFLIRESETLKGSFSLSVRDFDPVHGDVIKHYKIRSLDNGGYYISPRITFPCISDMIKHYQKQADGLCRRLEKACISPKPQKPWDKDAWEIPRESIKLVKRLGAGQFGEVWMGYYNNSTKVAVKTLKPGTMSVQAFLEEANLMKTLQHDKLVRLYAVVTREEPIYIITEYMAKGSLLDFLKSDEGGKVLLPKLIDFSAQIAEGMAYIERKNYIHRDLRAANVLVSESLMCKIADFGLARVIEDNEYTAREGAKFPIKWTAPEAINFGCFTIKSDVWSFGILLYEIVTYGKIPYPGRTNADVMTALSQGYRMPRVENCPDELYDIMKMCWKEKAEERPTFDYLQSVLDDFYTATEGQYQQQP
Chain of kinases of Table 5 (Homo sapiens, UniProt P11309) (P11309 whole entry): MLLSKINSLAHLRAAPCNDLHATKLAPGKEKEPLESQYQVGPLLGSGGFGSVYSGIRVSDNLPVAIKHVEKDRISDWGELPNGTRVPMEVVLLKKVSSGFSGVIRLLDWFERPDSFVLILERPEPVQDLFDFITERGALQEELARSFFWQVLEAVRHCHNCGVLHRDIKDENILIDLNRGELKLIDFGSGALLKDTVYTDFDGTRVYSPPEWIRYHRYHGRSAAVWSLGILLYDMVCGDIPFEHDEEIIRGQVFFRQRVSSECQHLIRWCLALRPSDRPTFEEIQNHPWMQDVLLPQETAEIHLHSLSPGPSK

With `O=c1c(-c2ccc(O)cc2)coc2cc(O)cc(O)c12` [Genistein], the Inhibition level on kinases of Table 5 [1] turned out to be 0; on kinases of Table 5 [5] (concentration not given) it was 0; at kinases of Table 5 [5] (inhibitor 100 uM), 2; on kinases of Table 5 [8] (kinase CAMK2D, concentration not given), 0; at kinases of Table 5 [8] (setting [16]), 2. For the same compound, the “Inhibition Results (Level)” value on kinases of Table 5 [2] (inhibitor 100 uM) was determined as 2; at kinases of Table 5 [2] (inhibitor <3.7 mM), 1; on kinases of Table 5 [3] (setting [12]), 2; at kinases of Table 5 [3] (kinase PIM1 (Part I, plate C2, Domain 1), inhibitor <3.7 mM), 0; on kinases of Table 5 [4] (setting [13]), 2; on kinases of Table 5 [4] (kinase FYN (Part I, plate A4, Domain 0), inhibitor <3.7 mM), 1. Also, the “Inhibition Results (Level)” value was found to be 2 on kinases of Table 5 [6] (setting [14]); 2 at kinases of Table 5 [6] (kinase LYN (Part I, plate A5, Domain 0), inhibitor <3.7 mM); 2 on kinases of Table 5 [7] (setting [15]); 0 on kinases of Table 5 [7] (kinase MAP2K4 (Part I, plate E6, Domain 1), inhibitor <3.7 mM); 2 at kinases of Table 5 [9]; 1 on kinases of Table 5 [10]. Besides, the “Inhibition Results (Level)” value turned out to be 2 at kinases of Table 5 [11] (inhibitor 100 uM) and 0 on kinases of Table 5 [11] (inhibitor <3.7 mM).
For `N#C/C(=C/c1ccc(O)c(O)c1)C(=O)NCc1ccccc1` [AG 490], the Inhibition level on kinases of Table 5 [1] is reported as 0; on kinases of Table 5 [5] (inhibitor 100 uM), 2; on kinases of Table 5 [8] (setting [16]) it was 2. The “Inhibition Results (Level)” value at kinases of Table 5 [2] (inhibitor 100 uM) was 2; on kinases of Table 5 [3] (setting [12]), 2; on kinases of Table 5 [4] (setting [13]) it was 2; at kinases of Table 5 [6] (setting [14]), 2; on kinases of Table 5 [7] (setting [15]) it was 0; at kinases of Table 5 [9], 0. Further, the “Inhibition Results (Level)” value at kinases of Table 5 [10] is on record as 0; at kinases of Table 5 [11] (inhibitor 100 uM) it was 2.
Consider `COc1cc2ncnc(Nc3cccc(Cl)c3)c2cc1OC` [AG 1478], for which the Inhibition level at kinases of Table 5 [1] turned out to be 1; on kinases of Table 5 [5] (inhibitor 100 uM), 2; on kinases of Table 5 [8] (setting [16]) it was 2. Also, the “Inhibition Results (Level)” value at kinases of Table 5 [2] (inhibitor 100 uM) was found to be 0; on kinases of Table 5 [3] (setting [12]) it was 1; on kinases of Table 5 [4] (setting [13]), 2; at kinases of Table 5 [6] (setting [14]) it was 2; at kinases of Table 5 [7] (setting [15]), 0; at kinases of Table 5 [9], 2. Further, the “Inhibition Results (Level)” value on kinases of Table 5 [10] was 0; at kinases of Table 5 [11] (inhibitor 100 uM), 2.
On to `CC(=O)c1c(O)c(C)c(O)c(Cc2c(O)c3c(c(C(=O)/C=C/c4ccccc4)c2O)OC(C)(C)C=C3)c1O` [Rottlerin (Mallotoxin)], for which the “Inhibition Results (Level)” value was 1 on kinases of Table 5 [1]; 0 at kinases of Table 5 [2] (inhibitor 100 uM); 2 at kinases of Table 5 [3] (setting [12]); 2 at kinases of Table 5 [4] (setting [13]); 2 at kinases of Table 5 [5] (inhibitor 100 uM); 2 on kinases of Table 5 [6] (setting [14]). The “Inhibition Results (Level)” value on kinases of Table 5 [7] (setting [15]) was 1; at kinases of Table 5 [9], 2; on kinases of Table 5 [10], 0; on kinases of Table 5 [11] (inhibitor 100 uM) it was 2. On kinases of Table 5 [8] (setting [16]), the Inhibition level turned out to be 2.
Turning to `CN[C@@H]1C[C@H]2O[C@@](C)([C@@H]1OC)n1c3ccccc3c3c4c(c5c6ccccc6n2c5c31)C(=O)NC4` [Staurosporine], the “Inhibition Results (Level)” value came out at 2 on kinases of Table 5 [3], 2 on kinases of Table 5 [4], 0 at kinases of Table 5 [6] and 0 at kinases of Table 5 [7]. The Inhibition level at kinases of Table 5 [5] (concentration not given) is 0; on kinases of Table 5 [8] it was 2.
As to `O=S(=O)(NCCNC/C=C/c1ccc(Br)cc1)c1cccc2cnccc12` [H-89], the “Inhibition Results (Level)” value at kinases of Table 5 [1] is reported as 1; at kinases of Table 5 [2] (inhibitor 100 uM), 2; at kinases of Table 5 [3] (setting [12]), 2; at kinases of Table 5 [4] (setting [13]), 2; at kinases of Table 5 [5] (inhibitor 100 uM), 1; on kinases of Table 5 [6] (setting [14]), 2. The “Inhibition Results (Level)” value on kinases of Table 5 [7] (setting [15]) stood at 1; at kinases of Table 5 [9] it was 0; on kinases of Table 5 [10] it was 2; on kinases of Table 5 [11] (inhibitor 100 uM), 2. On kinases of Table 5 [8] (setting [16]), this compound displayed an Inhibition level of 0.
Consider `CC(C)(C)n1nc(-c2ccc(Cl)cc2)c2c(N)ncnc21` [PP2], for which the Inhibition level on kinases of Table 5 [1], at kinases of Table 5 [5] (inhibitor 100 uM) and at kinases of Table 5 [8] (setting [16]) was 2 each time. Also, the “Inhibition Results (Level)” value came out at 1 on kinases of Table 5 [2] (inhibitor 100 uM); 2 on kinases of Table 5 [3] (setting [12]); 2 on kinases of Table 5 [6] (setting [14]); 2 on kinases of Table 5 [7] (setting [15]); 2 on kinases of Table 5 [9]; 1 on kinases of Table 5 [10].
`O=c1c(O)c(-c2ccc(O)c(O)c2)oc2cc(O)cc(O)c12` [Quercetin]: the “Inhibition Results (Level)” value on kinases of Table 5 [5] (inhibitor 100 uM) was found to be 2; at kinases of Table 5 [6] (setting [14]) it was 2; on kinases of Table 5 [7] (setting [15]), 0; at kinases of Table 5 [9], 0; at kinases of Table 5 [10] it was 0.
